≈ marks a conversion by molar mass, not a printed value. Calls of active or inactive are those of the source. The calls are words filed in the database; no cut-off is given here.
Legend:
[1] = system: Mycobacterium tuberculosis; test: Antitubercular activity against Mycobacterium tuberculosis H37Rv assessed as reduction in bacterial cell viability incubated for 5 days by microplate alamar blue assay; assay type: functional; details: 120 h
THP-1 = test: Cytotoxicity against human THP1 cells assessed as reduction in cell viability incubated for 48 hrs by MTT assay; assay type: cell-based; details: THP-1, 48 h
[2] = system: Mycobacterium tuberculosis; test: Antitubercular activity against Mycobacterium tuberculosis H37Rv infected in human THP1 cells assessed as reduction in CFU incubated for 48 hrs; assay type: functional, organism-based

NNC(=O)c1ccncc1 [ISONIAZID]
MIC90 [1]: 0.25 µg/mL (≈ 1.82 µM) | IC50 (THP-1): > 25 µg/mL | Activity [2]: Active
